# Laboratory results: publication PMC5387716, “Discovery of monocarbonyl curcumin-BTP hybrids as STAT3 inhibitors for drug-sensitive and drug-resistant breast cancer therapy” (Scientific Reports, 2017)
# Legend:
# Format in all cases: cell-based, human
# [1] = system: MCF-7 cells; assay: Flow cytometry of the cell cycle, MCF-7; conditions: MCF-7, 4 μM, 24 h
# Experimental: (§1) MCF-7 or MCF-7/DOX cells were plated in 6-well culture plates (1.5 × 10^5 cells per well). After incubation overnight, various concentrations of 6b or curcumin were added and cells were incubated for 24 h. Cells were harvested, washed with cold PBS, and incubated with pre-cooled 70% ethanol for a minimum of 4 h at 4 °C to fix them. The cells were then centrifuged, carefully aspirated from the supernatant, and re-suspended in a propidium iodide (final concentration, 40 μg/ml) and RNase A (final concentration, 100 μg/ml) solution at a final cell density of 0.5 × 10^6 cells/ml. The suspension was incubated at 37 °C for 30 min prior to analysis by flow cytometry.
# [2] = system: Bax gene; assay: Quantitative real-time RT-PCR of Bax; conditions: MCF-7 and MCF-7/DOX cells, 24 h
# Experimental: (§2) Levels of mRNA expression were analyzed with the RT-PCR assay, with total RNA isolated from MCF-7 or MCF-7/DOX cells using an EASYspin Plus tissue/cell RNA extraction kit (Aidlab Biotechnologies Co. Ltd). RNA was quantified by measuring absorption at 260 nm and 1 μg of RNA was reverse transcribed to cDNA using the Transcriptor First Strand cDNA Synthesis Kit (Roche Diagnostics, Basel, Switzerland). Thermal cycling conditions included 95 °C initial denaturation for 5 min, followed by 40 cycles of denaturation (10 s at 95 °C), annealing (15 s at 60 °C) and extension (15 s at 72 °C with a single fluorescence measurement), a melt curve program (60–95 °C with a 0.11 °C/s heat increase and continuous fluorescence measurement) and a cooling step to 40 °C. The Δ cycle threshold method was used for the calculation of relative differences in mRNA abundance with a LightCycler 480 (Roche Molecular Biochemicals, Mannheim, Germany). The data were normalized to the expression of GAPDH. The results were expressed as fold-changes. The RT-PCR primers that were used in this study are listed in the supporting information.
# [3] = system: Bcl-2 gene; assay: Quantitative real-time RT-PCR of Bcl-2; conditions: MCF-7 and MCF-7/DOX cells, 24 h
# Experimental: as §2
# [4] = system: MCF-7/DOX cells; assay: Annexin V-APC/7-AAD flow cytometry of apoptosis, MCF-7/DOX; conditions: 4 μM, 24 h
# Experimental: (§3) MCF-7, MCF-7/DOX or MCF-10A cells, at a density of 2.5 × 10^5 cells per well, were cultured in regular growth medium in 6-well plates for 24 h and treated in duplicate with different concentrations of 6b or curcumin for 24 h. The cells were harvested, washed and stained with 5 μL of Annexin V-APC and 5 μL of 7-AAD at room temperature for 15 min. Cells were then analyzed by flow cytometry (488 nm excitation and 600 nm emission filters) using a BD FACSCalibur flow cytometer (Becton & Dickinson Company, Franklin Lakes, NJ).
# [5] = system: MCF-7/DOX cells; assay: Flow cytometry of the cell cycle, MCF-7/DOX; conditions: 4 μM, 24 h
# Experimental: as §1
# [6] = system: MCF-7 cells; assay: Annexin V-APC/7-AAD flow cytometry of apoptosis, MCF-7; conditions: 4 μM, 24 h
# Experimental: as §3
# [7] = system: MCF-7/DOX cells; assay: MTT anti-proliferative assay, MCF-7/DOX; conditions: Homo sapiens, MCF7-DOX; MTT, 48 h; read-out: MCF-7/DOX IC50 ± SD
# Experimental: (§4) All cell lines were purchased from Cell Bank of Shanghai Institute of Biochemistry and Cell Biology, Chinese Academy of Sciences (Shanghai, China). Human breast carcinoma cells (MCF-7 and MCF-7/DOX), breast epithelial cells (MCF-10A) and normal human liver cells (LO2) were maintained in RPMI-1640 medium. All cells were supplemented with 12% fetal bovine serum containing 50 μg/ml penicillin and 50 μg/ml streptomycin. Cells were grown to 80% confluency in a tissue culture flask at 37 °C in a humidified atmosphere containing 5% CO2, and then were trypsinized with 1 × Trypsin-Versene and split. The MCF-7/DOX cell line we used was established from its parental cell line MCF-7 cell by gradually increasing the concentration of DOX to which the cells were exposed in a stepwise manner over a period of 8 months. […] The cells were incubated in drug-free medium for at least 1 week before use.
# (§5) Cells (MCF-7, MCF-7/DOX, MCF-10A, LO2) were seeded in 96-well plates at a density of 3,000–6,000 cells per well. The cells were incubated overnight (16 h) in a humidified 5% CO2 incubator at 37 °C. After media removal, different concentrations of test compounds were added in triplicate to the plates in 200 μL of fresh media and were incubated with the cells at 37 °C for 48 h. […] Cell viability was evaluated using 3-(4, 5-dimethylthiazolyl)-2,5-diphenyltetrazoliumbromide (MTT). The absorbance was read by an ELISA reader (SpectraMax Plus384, Molecular Devices, Sunnyvale, CA) at a test wavelength of 570 nm and a reference wavelength of 630 nm. Cell viability was calculated using the following formula: […]
# [8] = system: MCF-7/DOX cells; assay: ROS detection by DCFH-DA flow cytometry, MCF-7/DOX; conditions: 4 μM, 24 h
# Experimental: (§6) MCF-7 or MCF-7/DOX cells were seeded at a density of 3 × 10^5 cells per well of a 6-well plate and treated with various concentrations of 6b (0, 1, 2, 4 μM) or 4 μM curcumin for 24 h. DCFH-DA was dissolved in serum-free medium and diluted to a final concentration of 10 μM. After treatment with 6b, the growth media was replaced with serum-free medium containing the probe. After incubation for 20 min at 37 °C, cells were washed with serum-free medium twice, digested by trypsin and resuspended in pre-warmed PBS buffer. The samples were then subjected to a flow cytometry assay using a BD FACSCalibur flow cytometer (Becton & Dickinson Company, Franklin Lakes, NJ).
# [9] = system: MCF-7 cells; assay: ROS detection by DCFH-DA flow cytometry, MCF-7; conditions: MCF-7, 4 μM, 24 h
# Experimental: as §6
# [10] = system: MCF-7 cells; assay: MTT anti-proliferative assay, MCF-7; conditions: Homo sapiens, MCF7, 48 h, read-out: MCF-7 IC50 ± SD
# Experimental: as §4, §5
# [11] = system: Cyclin D1 gene; assay: Quantitative real-time RT-PCR of Cyclin D1; conditions: MCF-7 and MCF-7/DOX cells, 24 h
# Experimental: as §2
compound,measurement,setting,value
COc1cc(/C=C/C(=O)CC(=O)/C=C/c2ccc(O)c(OC)c2)ccc1O [curcumin],effect on the cell cycle,[1],little effect
same,Bax gene level (in words),[2],little effect
same,Bcl-2 gene level (in words),[3],little effect
same,apoptosis rate,[4],small effect
same,effect on the cell cycle,[5],little effect
same,apoptosis rate,[6],small effect
same,IC50,[7],32.7 ± 4 µM
same,ROS generation,[8],little effect
same,ROS generation,[9],little effect
same,IC50,[10],37.7 ± 8.2 µM
same,Cyclin D1 gene level (in words),[11],little effect
